Reference: ChEMBL document CHEMBL1201862, “PubChem BioAssay data set” (2004)
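Tested at 5 concentrations; 48 h exposure; 96-well plates; endpoints linearly interpolated, else capped at highest concentration. Here, GI50 denotes the concentration required for 50% inhibition of growth.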 Active and inactive are the calls of the source. Rule as the data show it: active = GI50 up to about 1.1 µM and inactive = higher.

Columns and labels:
Test in all cases: growth of human tumour cells (NCI), 48 h
Malme-3M = test system: Malme-3M
OVCAR-5 = test system: OVCAR-5
DU-145 = test system: DU-145
COLO 205 = test system: COLO 205
Hs-578T = test system: Hs-578T
786-0 = test system: 786-0
HOP-92 = test system: HOP-92
OVCAR-4 = test system: OVCAR-4
K562 = test system: K562
TK-10 = test system: TK-10
OVCAR-8 = test system: OVCAR-8
HL-60 = test system: HL-60
CCRF-CEM = test system: CCRF-CEM
RPMI-8226 = test system: RPMI-8226
NCI-H226 = test system: NCI-H226
UACC-257 = test system: UACC-257
SK-MEL-5 = test system: SK-MEL-5
EKVX = test system: EKVX
SK-MEL-28 = test system: SK-MEL-28
SK-OV-3 = test system: SK-OV-3
PC-3 = test system: PC-3
SF-295 = test system: SF-295
SN12C = test system: SN12C
U-251 = test system: U-251
M14 = test system: M14
NCI-H460 = test system: NCI-H460
OVCAR-3 = test system: OVCAR-3
MDA-MB-231 = test system: MDA-MB-231
SF-539 = test system: SF-539
MCF7 = test system: MCF7
HOP-62 = test system: HOP-62
KM12 = test system: KM12
A549 = test system: A549
CAKI-1 = test system: CAKI-1
NCI-H23 = test system: NCI-H23
HT-29 = test system: HT-29
SW-620 = test system: SW-620
HCT-116 = test system: HCT-116
HCC 2998 = test system: HCC 2998
UACC-62 = test system: UACC-62
SK-MEL-2 = test system: SK-MEL-2
T47D = test system: T47D
SR = test system: SR
ACHN = test system: ACHN
UO-31 = test system: UO-31
MDA-N = test system: MDA-N
HCT-15 = test system: HCT-15
MOLT-4 = test system: MOLT-4
MDA-MB-435 = test system: MDA-MB-435
SF-268 = test system: SF-268
NCI-H522 = test system: NCI-H522
SNB-19 = test system: SNB-19
LOX IMVI = test system: LOX IMVI
A498 = test system: A498
NCI/ADR-RES = test system: NCI/ADR-RES
IGROV-1 = test system: IGROV-1
BT-549 = test system: BT-549
SNB-75 = test system: SNB-75
RXF 393 = test system: RXF 393

Cc1ccc2c(c1)C(=O)/C(=C\c1ccc(Cl)cc1)CCS2(=O)=O
GI50 (Malme-3M): 2.07 µM (inactive)
GI50 (OVCAR-5): 12.4 µM (inactive)
GI50 (DU-145): 2.66 µM (inactive)
GI50 (COLO 205): 3.85 µM (inactive)
GI50 (Hs-578T): 3.1 µM (inactive)
GI50 (786-0): 1.69 µM (inactive)
GI50 (HOP-92): 3.53 µM (inactive)
GI50 (OVCAR-4): 2.64 µM (inactive)
GI50 (K562): 1.42 µM (inactive)
GI50 (TK-10): 2.1 µM (inactive)
GI50 (OVCAR-8): 1.95 µM (inactive)
GI50 (HL-60): 2.66 µM (inactive)
GI50 (CCRF-CEM): 2 µM (inactive)
GI50 (RPMI-8226): 2.34 µM (inactive)
GI50 (NCI-H226): 3.84 µM (inactive)
GI50 (UACC-257): 2.65 µM (inactive)
GI50 (SK-MEL-5): 3.22 µM (inactive)
GI50 (EKVX): 11.3 µM (inactive)
GI50 (SK-MEL-28): 4.59 µM (inactive)
GI50 (SK-OV-3): 7.82 µM (inactive)
GI50 (PC-3): 5.09 µM (inactive)
GI50 (SF-295): 4.21 µM (inactive)
GI50 (SN12C): 2.86 µM (inactive)
GI50 (U-251): 3.38 µM (inactive)
GI50 (M14): 4.05 µM (inactive)
GI50 (NCI-H460): 2.13 µM (inactive)
GI50 (OVCAR-3): 4.24 µM (inactive)
GI50 (MDA-MB-231): 3.58 µM (inactive)
GI50 (SF-539): 2 µM (inactive)
GI50 (MCF7): 3.85 µM (inactive)
GI50 (HOP-62): 6.67 µM (inactive)
GI50 (KM12): 2.66 µM (inactive)
GI50 (A549): 4.06 µM (inactive)
GI50 (CAKI-1): 3.07 µM (inactive)
GI50 (NCI-H23): 3.28 µM (inactive)
GI50 (HT-29): 2.55 µM (inactive)
GI50 (SW-620): 3.18 µM (inactive)
GI50 (HCT-116): 1.65 µM (inactive)
GI50 (HCC 2998): 2.13 µM (inactive)
GI50 (UACC-62): 3.15 µM (inactive)
GI50 (SK-MEL-2): 19.4 µM (inactive)
GI50 (T47D): 1.41 µM (inactive)
GI50 (SR): 1.66 µM (inactive)
GI50 (ACHN): 1.95 µM (inactive)
GI50 (UO-31): 2.9 µM (inactive)
GI50 (MDA-N): 4.81 µM (inactive)
GI50 (HCT-15): 1.97 µM
GI50 (MOLT-4): 1.85 µM (inactive)
GI50 (MDA-MB-435): 4.35 µM (inactive)
GI50 (SF-268): 3.12 µM (inactive)
GI50 (NCI-H522): 1.52 µM (inactive)
GI50 (SNB-19): 2.1 µM (inactive)
GI50 (LOX IMVI): 2.54 µM (inactive)
GI50 (A498): 12.4 µM (inactive)
GI50 (NCI/ADR-RES): 2.18 µM (inactive)
GI50 (IGROV-1): 2.65 µM (inactive)
GI50 (BT-549): 3.8 µM (inactive)
GI50 (SNB-75): 3.88 µM (inactive)

O=C(/C=C/c1ccc(O)cc1)c1cc(-c2cc(CCC(=O)c3ccc(O)cc3O)ccc2O)c(O)cc1O
GI50 (Malme-3M): 24.9 µM (inactive)
GI50 (RXF 393): 41.5 µM (inactive)
GI50 (OVCAR-5): > 50 µM (inactive)
GI50 (DU-145): 32.4 µM (inactive)
GI50 (COLO 205): 11.4 µM (inactive)
GI50 (Hs-578T): 23.7 µM (inactive)
GI50 (786-0): 25.6 µM (inactive)
GI50 (HOP-92): 15.2 µM (inactive)
GI50 (OVCAR-4): 19.7 µM (inactive)
GI50 (K562): 17.7 µM (inactive)
GI50 (TK-10): 18.1 µM (inactive)
GI50 (OVCAR-8): 25.5 µM (inactive)
GI50 (HL-60): 17.9 µM (inactive)
GI50 (CCRF-CEM): 13.1 µM (inactive)
GI50 (RPMI-8226): 16.3 µM (inactive)
GI50 (UACC-257): > 50 µM (inactive)
GI50 (SK-MEL-5): 25.2 µM (inactive)
GI50 (EKVX): > 50 µM (inactive)
GI50 (SK-MEL-28): 21.7 µM (inactive)
GI50 (SK-OV-3): 16.9 µM (inactive)
GI50 (PC-3): 22.6 µM (inactive)
GI50 (SF-295): 22.3 µM (inactive)
GI50 (SN12C): 32.2 µM (inactive)
GI50 (U-251): 17.5 µM (inactive)
GI50 (M14): 41.6 µM (inactive)
GI50 (NCI-H460): 23.8 µM (inactive)
GI50 (OVCAR-3): 14.1 µM (inactive)
GI50 (MDA-MB-231): 37.8 µM (inactive)
GI50 (SF-539): 10.8 µM (inactive)
GI50 (MCF7): 28.1 µM (inactive)
GI50 (HOP-62): 27.4 µM (inactive)
GI50 (KM12): 19.8 µM (inactive)
GI50 (A549): > 50 µM (inactive)
GI50 (CAKI-1): > 50 µM (inactive)
GI50 (NCI-H23): 35.9 µM (inactive)
GI50 (HT-29): 14.4 µM (inactive)
GI50 (SW-620): 29.9 µM (inactive)
GI50 (HCT-116): 19.8 µM (inactive)
GI50 (UACC-62): 22.8 µM (inactive)
GI50 (SK-MEL-2): 33.7 µM (inactive)
GI50 (T47D): 30.6 µM (inactive)
GI50 (SR): 10.4 µM (inactive)
GI50 (ACHN): > 50 µM (inactive)
GI50 (UO-31): > 50 µM (inactive)
GI50 (MDA-N): 19.1 µM (inactive)
GI50 (HCT-15): > 50 µM
GI50 (MOLT-4): 7.23 µM (inactive)
GI50 (MDA-MB-435): 17 µM (inactive)
GI50 (SF-268): 22.4 µM (inactive)
GI50 (NCI-H522): 22.3 µM (inactive)
GI50 (SNB-19): 26.8 µM (inactive)
GI50 (LOX IMVI): 19.5 µM (inactive)
GI50 (A498): 24.8 µM (inactive)
GI50 (NCI/ADR-RES): > 50 µM (inactive)
GI50 (IGROV-1): 16.2 µM (inactive)
GI50 (BT-549): 36.1 µM (inactive)
GI50 (SNB-75): 19.3 µM (inactive)
